For the experiment, the system named is RAW264.7. The experiment can be described thus: Inhibition of COX2 mRNA expression in mouse RAW264.7 cells. In kind it is functional, cell-based.

Molecules are shown by their SMILES.

The term IC50 denotes the point on the concentration scale where inhibition reaches its midpoint. Read a high IC50 as weaker potency. As to `O=c1c(O)c(-c2ccc(O)cc2)oc2cc(O)cc(O)c12` [KAEMPFEROL], the IC50 is less than 15 µM.

(Values after ChEMBL document CHEMBL1151260, “Expanding the ChemGPS chemical space with natural products” (J Nat Prod, 2005).)
